From patent US8802597B2, “Herbicidal pyrimidines” (E I du Pont de Nemours and Company, priority 2003, dated 2014)
Read-outs that look alike come from different tables or passages of the source.

What was measured:
Experiment in all cases: Test C pre/postemergence
Format in all cases: in vivo
[1] = test system: cocklebur (Xanthium strumarium); settings: Xanthium strumarium; for pest or weed control at 31 g/ha: 31 g ai/ha; for pest or weed control at 62 g/ha: 62 g ai/ha; for pest or weed control at 125 g/ha: 125 g ai/ha; for pest or weed control at 250 g/ha: 250 g ai/ha
Summary of the method: (§1)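 Pre: seeds planted, sprayed same day. Post: 1- to 4-leaf plants (2–18 cm). Formulation: non-phytotoxic solvent + surfactant. Greenhouse 12–14 d; visual % control vs untreated, 0–100.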

[2] = test system: common (oilseed) sunflower (Helianthus annuus); settings: Helianthus annuus, pre-emergence, Preemergence, read-out: Plant response rating, Sunflower
Summary of the method: as §1

[3] = test system: common ragweed (Ambrosia elatior); settings: Ambrosia artemisiifolia; for pest or weed control at 31 g/ha: 31 g ai/ha; for pest or weed control at 62 g/ha: 62 g ai/ha; for pest or weed control at 125 g/ha: 125 g ai/ha; for pest or weed control at 250 g/ha: 250 g ai/ha
Summary of the method: as §1

[4] = test system: crabgrass (Digitaria sanguinalis); settings: Digitaria sanguinalis; for pest or weed control at 31 g/ha: 31 g ai/ha; for pest or weed control at 62 g/ha: 62 g ai/ha; for pest or weed control at 125 g/ha: 125 g ai/ha; for pest or weed control at 250 g/ha: 250 g ai/ha
Summary of the method: as §1

[5] = test system: eastern black nightshade (Solanum ptycanthum); settings: Solanum, pre-emergence, Preemergence, read-out: Plant response rating, Nightshade
Summary of the method: as §1

[6] = test system: giant foxtail (Setaria faberii); settings: Setaria faberi; for pest or weed control at 125 g/ha: 125 g ai/ha; for pest or weed control at 31 g/ha: 31 g ai/ha; for pest or weed control at 62 g/ha: 62 g ai/ha; for pest or weed control at 250 g/ha: 250 g ai/ha
Summary of the method: as §1

[7] = test system: kochia (Kochia scoparia); settings: Bassia scoparia, post-emergence, Postemergence
Summary of the method: as §1

[8] = post-emergence, Postemergence, scale 0 to 100 (0 no effect, 100 complete control), read-out: Cocklebur plant response rating
[9] = pre-emergence, Preemergence, scale 0 to 100, 0 no effect, 100 complete control, read-out: Plant response rating, Cocklebur
[10] = pre-emergence, Preemergence, scale 0 to 100, read-out: Plant response rating, Cocklebur
[11] = 31 g ai/ha, scale 0 to 100, 0 no effect, 100 complete control
[12] = 62 g ai/ha, scale 0 to 100, 0 no effect, 100 complete control
[13] = post-emergence, Postemergence, scale 0 to 100 (0 no effect, 100 complete control), read-out: Ragweed plant response rating
[14] = pre-emergence, Preemergence, scale 0 to 100, 0 no effect, 100 complete control, read-out: Plant response rating, Ragweed
[15] = pre-emergence, Preemergence, scale 0 to 100, read-out: Plant response rating, Ragweed
[16] = post-emergence, Postemergence, scale 0 to 100 (0 no effect, 100 complete control), read-out: Crabgrass plant response rating
[17] = pre-emergence, Preemergence, scale 0 to 100, 0 no effect, 100 complete control, read-out: Plant response rating, Crabgrass
[18] = pre-emergence, Preemergence, scale 0 to 100, read-out: Plant response rating, Crabgrass
[19] = post-emergence, Postemergence, scale 0 to 100 (0 no effect, 100 complete control), read-out: Foxtail, Giant plant response rating
[20] = pre-emergence, Preemergence, scale 0 to 100, 0 no effect, 100 complete control, read-out: Plant response rating, Foxtail, Giant
[21] = pre-emergence, Preemergence, scale 0 to 100, read-out: Plant response rating, Foxtail, Giant

`COC(=O)c1nc(C(C)C)nc(N)c1Br` [Compound 3] was tested, and the pest or weed control at 31 g/ha ([1]; post-emergence, Postemergence, read-out: Plant response rating (scale of 0 to 100), Cocklebur) was 60%, the pest or weed control at 62 g/ha [1, 8] was 65% and the pest or weed control at 125 g/ha [1, 8] was 75%. For the same compound, the pest or weed control at 250 g/ha ([1]; post-emergence, Postemergence, scale 0 to 100, read-out: Plant response rating, Cocklebur) was 90%, the pest or weed control at 31 g/ha [1, 9] was 0% and the pest or weed control at 62 g/ha [1, 9] was 30%. The pest or weed control at 125 g/ha [1, 10] was 55%, the pest or weed control at 250 g/ha [1, 10] was 70% and the pest or weed control at 31 g/ha [2, 11] was 0%. It also gave a pest or weed control at 62 g/ha [2, 12] of 0%, a pest or weed control at 125 g/ha ([2]; 125 g ai/ha, scale 0 to 100) of 0% and a pest or weed control at 250 g/ha ([2]; 250 g ai/ha, scale 0 to 100) of 0%. The pest or weed control at 31 g/ha ([3]; post-emergence, Postemergence, read-out: Plant response rating (scale of 0 to 100), Ragweed) was 55%, the pest or weed control at 62 g/ha [3, 13] was 75% and the pest or weed control at 125 g/ha [3, 13] was 80%. For the same compound, the pest or weed control at 250 g/ha ([3]; post-emergence, Postemergence, scale 0 to 100, read-out: Plant response rating, Ragweed) was 95%, the pest or weed control at 31 g/ha [3, 14] was 0% and the pest or weed control at 62 g/ha [3, 14] was 0%. It also gave a pest or weed control at 125 g/ha [3, 15] of 0%, a pest or weed control at 250 g/ha [3, 15] of 45% and a pest or weed control at 31 g/ha ([4]; post-emergence, Postemergence, read-out: Plant response rating (scale of 0 to 100), Crabgrass) of 0%. For the same compound, the pest or weed control at 62 g/ha [4, 16] was 0%, the pest or weed control at 125 g/ha [4, 16] was 0% and the pest or weed control at 250 g/ha ([4]; post-emergence, Postemergence, scale 0 to 100, read-out: Plant response rating, Crabgrass) was 0%. The pest or weed control at 31 g/ha [4, 17] was 0%, the pest or weed control at 62 g/ha [4, 17] was 0% and the pest or weed control at 125 g/ha [4, 18] was 0%. The pest or weed control at 250 g/ha [4, 18] was 0%, the pest or weed control at 31 g/ha [5, 11] was 0% and the pest or weed control at 62 g/ha [5, 12] was 0%. For the same compound, the pest or weed control at 125 g/ha ([5]; 125 g ai/ha, scale 0 to 100) was 0%, the pest or weed control at 250 g/ha ([5]; 250 g ai/ha, scale 0 to 100) was 20% and the pest or weed control at 125 g/ha [6, 19] was 0%. The pest or weed control at 31 g/ha ([6]; post-emergence, Postemergence, read-out: Plant response rating (scale of 0 to 100), Foxtail, Giant) was 0%, the pest or weed control at 62 g/ha [6, 19] was 0% and the pest or weed control at 250 g/ha ([6]; post-emergence, Postemergence, scale 0 to 100, read-out: Plant response rating, Foxtail, Giant) was 0%. For the same compound, the pest or weed control at 31 g/ha [6, 20] was 0%, the pest or weed control at 62 g/ha [6, 20] was 0% and the pest or weed control at 125 g/ha [6, 21] was 0%. For the same compound, the pest or weed control at 250 g/ha [6, 21] was 0%, the pest or weed control at 31 g/ha ([7]; 31 g ai/ha, read-out: Plant response rating (scale of 0 to 100), Kochia) was 20% and the pest or weed control at 62 g/ha ([7]; 62 g ai/ha, scale 0 to 100 (0 no effect, 100 complete control), read-out: Kochia plant response rating) was 65%. The pest or weed control at 125 g/ha ([7]; 125 g ai/ha, scale 0 to 100 (0 no effect, 100 complete control), read-out: Kochia plant response rating) was 90% and the pest or weed control at 250 g/ha ([7]; 250 g ai/ha, scale 0 to 100, read-out: Plant response rating, Kochia) was 100%.
